One data set deals with Cdk1/cycB (UniProt P06493). Briefly: Cdk1/cycB kinase assay, histone H1 substrate. The class given is biochemical, starfish. The method, then: The inhibition of Cdk1 can be determined as follows: Cdk1/cycB: Cdk1/cycB are obtained from ProQinase, Freiburg, Germany. Starfish oocytes are induced to enter M phase of the cell cycle with 10 μM 1-methyladenine and frozen in liquid nitrogen and stored at −80° C. […] Briefly, the supernatant from oocytes is equilibrated for 30 min at 4° C. under constant rotation with the p9^CKShs-sepharose beads. The beads are extensively washed and active cdk1/cycB kinase is eluted with purified p9^CKShs (3 mg/ml). […] The assay is carried with slight modifications in 96-well plates at ambient temperature for 20 min. […] The reaction is terminated by addition of 25 μl 0.05 M EDTA pH 7.0. An aliquot of 40 μl is spotted with a multichannel dispenser on Immobilon P membranes mounted in a Millipore Microtiter filter manifold connected to a low vacuum source. After elimination of liquid, the membrane is transferred to a sequence of 4 washing baths containing 0.5% H3PO4 and one with EtOH (shaking incubation for 10 min each), dried, mounted onto a Hewlett Packard TopCount manifold added 10 μl Microscint® and counted. […] Cells were seeded at 2.5×10^7 cells per 150 mm dish and allowed to attach to a 150 mm dish for 1 hr at RT. Media (SF900II containing 10% FBS) is aspirated and recombinant baculovirus; GST-C-Raf-1, v-Ras and v-Src are added at MOI of 3.0, 2.5 and 2.5 receptively in a total volume of 4-5 mL. Cells are incubated for 1 hr at RT and then 15 mL of medium is added. Infected cells are incubated for 48-72 hr at 27° C. Infected Sf21 cells are scraped and collected into a 50 mL tube and centrifuged for 10 min at 4° C. at 1100 g in a Sorvall centrifuge. The cell pellet is washed once with ice cold PBS and lysed with 0.6 mL lysis buffer per 2.5×10^7 cells. Complete lysis of cells is achieved after 10 min on ice with occasional pipetting. […] GST-c-Raf-1 was allowed to bind to the beads at 4° C. for 1 hr with rocking. Bound GST-c-Raf-1 with beads was transferred to a column. The column is washed once with lysis buffer and twice with ice cold Tris buffered saline. Ice cold elution buffer is added and column flow is stopped to allow the free glutathione to disrupt the interaction of GST-c-Raf-1 with glutathione sepharose beads. Fractions (1 mL) are collected into pre-chilled tubes. Each tube contains 10% glycerol (final concentration) to maintain kinase activity during freeze thaw cycles. Purified fractions of GST-c-Raf-1 kinase protein are stored at −80° C.

In another data set the target is HER-1 (Homo sapiens, UniProt P00533). The data set can be described thus: HER-1 kinase inhibition. The format is biochemical. To be noted: Table 5; read-out: HER-1, IC50 class.
Where [1] appears, read: Table 4, read-out: Cdk1, activity (IC50 for kinase inhibition).
Setting [2] is: Table 5, read-out: CDK1/B, IC50 class.

Where two headings read alike, the source gives them in different places.

HER-1, sequence (P00533 25-1210, species assumed): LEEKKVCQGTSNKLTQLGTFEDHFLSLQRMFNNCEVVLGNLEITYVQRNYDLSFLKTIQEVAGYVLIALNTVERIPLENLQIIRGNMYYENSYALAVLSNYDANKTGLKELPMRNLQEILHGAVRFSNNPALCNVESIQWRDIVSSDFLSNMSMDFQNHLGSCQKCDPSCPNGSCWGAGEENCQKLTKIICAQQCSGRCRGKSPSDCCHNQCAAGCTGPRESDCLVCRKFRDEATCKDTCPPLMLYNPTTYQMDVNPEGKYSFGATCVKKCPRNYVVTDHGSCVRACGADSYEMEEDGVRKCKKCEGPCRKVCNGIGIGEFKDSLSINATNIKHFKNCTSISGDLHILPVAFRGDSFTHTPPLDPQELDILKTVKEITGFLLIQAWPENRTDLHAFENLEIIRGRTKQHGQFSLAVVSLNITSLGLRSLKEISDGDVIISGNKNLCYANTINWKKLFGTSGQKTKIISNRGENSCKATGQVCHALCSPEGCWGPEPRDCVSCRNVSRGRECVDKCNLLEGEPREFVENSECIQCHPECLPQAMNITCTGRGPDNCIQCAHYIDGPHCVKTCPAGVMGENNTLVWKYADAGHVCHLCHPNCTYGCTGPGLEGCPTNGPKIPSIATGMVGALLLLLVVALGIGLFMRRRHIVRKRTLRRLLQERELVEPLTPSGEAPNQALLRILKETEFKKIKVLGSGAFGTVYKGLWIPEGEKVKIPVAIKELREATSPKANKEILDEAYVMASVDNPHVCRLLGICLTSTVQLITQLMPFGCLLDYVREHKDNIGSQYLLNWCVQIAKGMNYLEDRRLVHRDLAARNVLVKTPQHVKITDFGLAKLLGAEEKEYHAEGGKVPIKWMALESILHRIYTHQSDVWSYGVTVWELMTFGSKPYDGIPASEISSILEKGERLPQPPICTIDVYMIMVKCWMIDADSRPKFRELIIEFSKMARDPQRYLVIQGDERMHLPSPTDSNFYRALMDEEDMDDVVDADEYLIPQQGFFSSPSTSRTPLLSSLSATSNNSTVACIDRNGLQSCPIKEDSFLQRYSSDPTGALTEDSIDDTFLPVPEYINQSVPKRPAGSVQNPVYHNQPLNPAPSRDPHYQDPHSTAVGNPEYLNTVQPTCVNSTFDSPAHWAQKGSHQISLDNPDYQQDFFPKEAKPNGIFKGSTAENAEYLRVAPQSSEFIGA

Regarding `Nc1c(-c2cccc(O)c2)cnc2c(-c3cccnc3)cnn12` [Example 46, 3-[7-Amino-3-pyridin-3-yl-pyrazolo[1,5-a]pyrimidin-6-yl]-phenol], the IC50 on Cdk1/cycB (setting [1]) was below 10 µM.

With `COc1cccc(-c2cnn3c(N)c(-c4cccc(O)c4)cnc23)c1` [Example 60, 3-[7-Amino-3-(3-methoxy-phenyl)-pyrazolo[1,5-a]pyrimidin-6-yl]-phenol], on Cdk1/cycB (setting [1]), the IC50 was below 10 µM.

On to `Cc1nc2c(-c3cccc(N4CCN(C)CC4)c3)cnn2c(N)c1-c1cccc(Cl)c1` [Example 72, 6-(3-Chloro-phenyl)-5-methyl-3-[3-(4-methyl-piperazin-1-yl)-phenyl]-pyrazolo[1,5-a]pyrimidin-7-ylamine], for which the melting point lay within 110 to 115 °C. In addition, the IC50 on Cdk1/cycB (setting [2]) is above 10 µM. Besides, the IC50 on HER-1 lay in the range of 1 to 10 µM.

For `Cc1nc2c(-c3ccc(N4CCN(C)CC4)cc3)cnn2c(N)c1-c1cccc(Cl)c1` [Example 73, 6-(3-Chloro-phenyl)-5-methyl-3-[4-(4-methyl-piperazin-1-yl)-phenyl]-pyrazolo[1,5-a]pyrimidin-7-ylamine], the melting point lay in the range of 113 to 115 °C. Moreover, the IC50 on Cdk1/cycB (setting [2]) is above 10 µM. The IC50 at HER-1 was in the range of 1 to 10 µM.

In the case of `COc1cc(N2CCN(C)CC2)ccc1-c1cnn2c(N)c(-c3cccc(Cl)c3)c(C)nc12` [Example 75, 6-(3-Chloro-phenyl)-3-[2-methoxy-4-(4-methyl-piperazin-1-yl)-phenyl]-5-methyl-pyrazolo[1,5-a]pyrimidin-7-ylamine], the melting point lay in the range of 215 to 217 °C.

`COc1cc(N2CCN(C)CC2)ccc1-c1cnn2c(N)c(-c3cccc(O)c3)cnc12` [Example 76, 3-{7-Amino-3-[2-methoxy-4-(4-methyl-piperazin-1-yl)-phenyl]-pyrazolo[1,5-a]pyrimidin-6-yl}-phenol] showed a melting point of 217 to 220 °C. Also, at Cdk1/cycB (setting [2]), the IC50 is above 10 µM. For the same compound, at HER-1, the IC50 was below 1 µM.

`CN1CCN(c2ccc(-c3cnn4c(N)c(-c5ccccc5Cl)cnc34)cc2)CC1` [Example 77, 6-(2-Chloro-phenyl)-3-[4-(4-methyl-piperazin-1-yl)-phenyl]-pyrazolo[1,5-a]pyrimidin-7-ylamine] showed a melting point of 197 to 200 °C.

Compound `CN1CCN(c2cccc(-c3cnn4c(N)c(-c5ccccc5Cl)cnc34)c2)CC1` [Example 78, 6-(2-Chloro-phenyl)-3-[3-(4-methyl-piperazin-1-yl)-phenyl]-pyrazolo[1,5-a]pyrimidin-7-ylamine] had a melting point of 200 to 203 °C.

Consider `Cc1nc2c(-c3ccc(N4CCN(C)CC4)cc3)cnn2c(N)c1-c1ccc(F)cc1` [Example 79, 6-(4-Fluoro-phenyl)-5-methyl-3-[4-(4-methyl-piperazin-1-yl)-phenyl]-pyrazolo[1,5-a]pyrimidin-7-ylamine], for which the melting point was in the range of 289 to 291 °C. On Cdk1/cycB (setting [2]), the IC50 is above 10 µM. Moreover, the IC50 at HER-1 lay within 1 to 10 µM.

For the compound `Cc1nc2c(-c3cccc(N4CCN(C)CC4)c3)cnn2c(N)c1-c1ccc(F)cc1` [Example 80, 6-(4-Fluoro-phenyl)-5-methyl-3-[3-(4-methyl-piperazin-1-yl)-phenyl]-pyrazolo[1,5-a]pyrimidin-7-ylamine], the melting point is 204 to 206 °C. Further, the IC50 on Cdk1/cycB (setting [2]) is above 10 µM. In addition, the IC50 on HER-1 was above 10 µM.

Compound `Cc1nc2c(-c3cccc(N4CCN(C5CCN(C)CC5)CC4)c3)cnn2c(N)c1-c1cccc(Cl)c1` [Example 81, 6-(3-Chloro-phenyl)-5-methyl-3-{3-[4-(1-methyl-piperidin-4-yl)-piperazin-1-yl]-phenyl}-pyrazolo[1,5-a]pyrimidin-7-ylamine] had a melting point of 180 to 185 °C. The IC50 at Cdk1/cycB (setting [2]) was above 10 µM. Also, the IC50 at HER-1 is above 10 µM.

In turn, `Cc1nc2c(-c3cccc(N4CCN(C)CC4)c3)cnn2c(N)c1-c1ccc(F)c(Cl)c1` [Example 82, 6-(3-Chloro-4-fluoro-phenyl)-5-methyl-3-[3-(4-methyl-piperazin-1-yl)-phenyl]pyrazolo[1,5-a]pyrimidin-7-ylamine] registered a melting point of 224 to 226 °C. In addition, the IC50 on Cdk1/cycB (setting [2]) is above 10 µM. The IC50 on HER-1 is above 10 µM.

As to `Cc1nc2c(-c3ccc(N4CCN(C)CC4)cc3)cnn2c(N)c1-c1ccc(F)c(Cl)c1` [Example 83, 6-(3-Chloro-4-fluoro-phenyl)-5-methyl-3-[4-(4-methyl-piperazin-1-yl)-phenyl]-pyrazolo[1,5-a]pyrimidin-7-ylamine], the melting point is 264 to 265 °C. For the same compound, the IC50 at Cdk1/cycB (setting [2]) is above 10 µM. Further, on HER-1, the IC50 is above 10 µM.

As for `Cc1nc2c(-c3cccc(N4CCN(C)CC4)c3)cnn2c(N)c1-c1cccc(Br)c1` [Example 84, 6-(3-Bromo-phenyl)-5-methyl-3-[3-(4-methyl-piperazin-1-yl)-phenyl]-pyrazolo[1,5-a]pyrimidin-7-ylamine], the melting point was 107 to 113 °C. The IC50 on Cdk1/cycB (setting [2]) is above 10 µM. The IC50 at HER-1 is above 10 µM.

`CN1CCN(c2cccc(-c3cnn4c(N)c(Cc5cccc(Br)c5)cnc34)c2)CC1` [Example 85, 6-(3-Bromo-benzyl)-3-[3-(4-methyl-piperazin-1-yl)-phenyl]pyrazolo[1,5-a]pyrimidin-7-ylamine]: the melting point was 170 to 171 °C. In addition, at Cdk1/cycB (setting [2]), the IC50 was above 10 µM. For the same compound, the IC50 on HER-1 was above 10 µM.

In turn, `CN1CCN(c2cccc(-c3cnn4c(N)c(-c5cccc(Br)c5)cnc34)c2)CC1` [Example 86, 6-(3-Bromo-phenyl)-3-[3-(4-methyl-piperazin-1-yl)-phenyl]-pyrazolo[1,5-a]pyrimidin-7-ylamine] registered a melting point of 195.3 to 197.2 °C. In addition, at Cdk1/cycB (setting [2]), the IC50 is above 10 µM. At HER-1, the IC50 was above 10 µM.

As to `Cc1nc2c(-c3cccc(N4CCOCC4)c3)cnn2c(N)c1-c1cccc(Cl)c1` [Example 87, 6-(3-Chloro-phenyl)-5-methyl-3-(3-morpholin-4-yl-phenyl)-pyrazolo[1,5-a]pyrimidin-7-ylamine], the melting point lay within 165 to 167 °C. For the same compound, the IC50 on Cdk1/cycB (setting [2]) was above 10 µM. Further, the IC50 at HER-1 was above 10 µM.

With `COc1ccc(-c2cnn3c(N)c(-c4cccc(Cl)c4)c(C)nc23)cc1` [Example 88, 6-(3-Chloro-phenyl)-3-(4-methoxy-phenyl)-5-methyl-pyrazolo[1,5-a]pyrimidin-7-ylamine], the melting point is 171 to 172 °C. The IC50 on Cdk1/cycB (setting [2]) was above 10 µM. At HER-1, the IC50 was above 10 µM.

The compound `Cc1nc2c(-c3cccc(N4C[C@@H](C)O[C@@H](C)C4)c3)cnn2c(N)c1-c1cccc(Cl)c1` [Example 89, 6-(3-Chloro-phenyl)-3-[3-((2R,6S)-2,6-dimethyl-morpholin-4-yl)-phenyl]-5-methyl-pyrazolo[1,5-a]pyrimidin-7-ylamine] came in with a melting point of 165 to 167 °C. Further, the IC50 on Cdk1/cycB (setting [2]) was above 10 µM. The IC50 at HER-1 was above 10 µM.

`Cc1nc2c(-c3cccc(N4CCN(CCO)CC4)c3)cnn2c(N)c1-c1cccc(Cl)c1` [Example 90, 2-(4-{3-[7-Amino-6-(3-chloro-phenyl)-5-methyl-pyrazolo[1,5-a]pyrimidin-3-yl]-phenyl}-piperazin-1-yl)-ethanol]: the melting point was 108 to 116 °C. Further, the IC50 at Cdk1/cycB (setting [2]) was above 10 µM. Also, the IC50 on HER-1 was above 10 µM.

`CN1CCN(c2cccc(-c3cnn4c(N)c(Cc5ccccc5)cnc34)c2)CC1` [Example 91, 6-Benzyl-3-[3-(4-methyl-piperazin-1-yl)-phenyl]-pyrazolo[1,5-a]pyrimidin-7-ylamine] showed a melting point of 72 to 75 °C. For the same compound, the IC50 at Cdk1/cycB (setting [2]) was above 10 µM. In addition, the IC50 on HER-1 was above 10 µM.

Regarding `Cc1nc2c(-c3cccc(N4CC[N+](C)([O-])CC4)c3)cnn2c(N)c1-c1ccc(F)cc1` [Example 106, 6-(4-Fluoro-phenyl)-5-methyl-3-[3-(4-methyl-4-oxy-piperazin-1-yl)-phenyl]-pyrazolo[1,5-a]pyrimidin-7-ylamine], the IC50 at Cdk1/cycB (setting [2]) and at HER-1 was above 10 µM each time.

Regarding `Cc1nc2c(-c3cccc([N+]4([O-])CC[N+](C)([O-])CC4)c3)cnn2c(N)c1-c1ccc(F)cc1` (stereo not drawn) [Example 107, 6-(4-Fluoro-phenyl)-5-methyl-3-[3-(4-methyl-1,4-dioxy-piperazin-1-yl)-phenyl]-pyrazolo[1,5-a]pyrimidin-7-ylamine], the IC50 at Cdk1/cycB (setting [2]) and at HER-1 was above 10 µM each time.

In general, melting point refers to the temperature of the solid-liquid transition.

Values taken from patent US20090099167A1, “Organic compounds” (Novartis Institutes for Biomedical Research, priority 2004, published 2009).
